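Cultured in 96-well plates, cells were exposed to test compound for 48 hours across five concentrations. GI50 = concentration required for 50% inhibition of growth.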 Active and inactive are the calls of the source. No stated cut-off is given here; in the data, active = GI50 up to about 1.1 µM and inactive = higher.
How the values were obtained:
Experiment in all cases: NCI anticancer screen, dose series, 48 h
[1] = tested on: CCRF-CEM
[2] = tested on: SK-MEL-2
[3] = tested on: HOP-92
[4] = tested on: U-251
[5] = tested on: HCT-116
[6] = tested on: NCI-H522
[7] = tested on: Malme-3M
[8] = tested on: SW-620
[9] = tested on: UACC-257
[10] = tested on: EKVX
[11] = tested on: IGROV-1
[12] = tested on: M14
[13] = tested on: A498
[14] = tested on: NCI-H460
[15] = tested on: CAKI-1
[16] = tested on: BT-549
[17] = tested on: HCT-15
[18] = tested on: OVCAR-3
[19] = tested on: UO-31
[20] = tested on: MDA-N
[21] = tested on: COLO 205
[22] = tested on: HL-60
[23] = tested on: SN12C
[24] = tested on: OVCAR-4
[25] = tested on: NCI-H23
[26] = tested on: T47D
[27] = tested on: SK-OV-3
[28] = tested on: SF-268
[29] = tested on: 786-0
[30] = tested on: K562
[31] = tested on: MDA-MB-435
[32] = tested on: SF-295
[33] = tested on: SNB-19
[34] = tested on: MCF7
[35] = tested on: SK-MEL-28
[36] = tested on: HT-29
[37] = tested on: TK-10
[38] = tested on: Hs-578T
[39] = tested on: NCI-H226
[40] = tested on: UACC-62
[41] = tested on: DU-145
[42] = tested on: MOLT-4
[43] = tested on: SK-MEL-5
[44] = tested on: ACHN
[45] = tested on: SF-539
[46] = tested on: LOX IMVI
[47] = tested on: A549
[48] = tested on: PC-3
[49] = tested on: RXF 393
[50] = tested on: KM12
[51] = tested on: OVCAR-5
[52] = tested on: NCI/ADR-RES
[53] = tested on: OVCAR-8
[54] = tested on: SR
[55] = tested on: MDA-MB-231
[56] = tested on: HOP-62
[57] = tested on: SNB-75
[58] = tested on: RPMI-8226

With `O=C(O)CSc1ncccc1[N+](=O)[O-]` the GI50 [1] was > 100 µM (inactive), the GI50 [2] was > 100 µM (inactive) and the GI50 [3] was > 100 µM (inactive). For the same molecule, the GI50 [4] was > 100 µM (inactive), the GI50 [5] was > 100 µM (inactive) and the GI50 [6] was > 100 µM (inactive). The GI50 [7] was > 100 µM (inactive), the GI50 [8] was > 100 µM (inactive) and the GI50 [9] was > 100 µM (inactive). The GI50 [10] was > 100 µM (inactive), the GI50 [11] was > 100 µM (inactive) and the GI50 [12] was > 100 µM (inactive). For the same molecule, the GI50 [13] was > 100 µM (inactive), the GI50 [14] was > 100 µM (inactive) and the GI50 [15] was > 100 µM (inactive). For the same molecule, the GI50 [16] was > 100 µM (inactive), the GI50 [17] was greater than 100 µM and the GI50 [18] was > 100 µM (inactive). The GI50 [19] was > 100 µM (inactive), the GI50 [20] was > 100 µM (inactive) and the GI50 [21] was > 100 µM (inactive). The GI50 [22] was > 100 µM (inactive), the GI50 [23] was > 100 µM (inactive) and the GI50 [24] was > 100 µM (inactive). The GI50 [25] was > 100 µM (inactive), the GI50 [26] was > 100 µM (inactive) and the GI50 [27] was > 100 µM (inactive). The GI50 [28] was > 100 µM (inactive), the GI50 [29] was > 100 µM (inactive) and the GI50 [30] was > 100 µM (inactive). For the same molecule, the GI50 [31] was > 100 µM (inactive), the GI50 [32] was > 100 µM (inactive) and the GI50 [33] was > 100 µM (inactive). The GI50 [34] was > 100 µM (inactive), the GI50 [35] was > 100 µM (inactive) and the GI50 [36] was > 100 µM (inactive). For the same molecule, the GI50 [37] was > 100 µM (inactive), the GI50 [38] was > 100 µM (inactive) and the GI50 [39] was > 100 µM (inactive). For the same molecule, the GI50 [40] was > 100 µM (inactive), the GI50 [41] was > 100 µM (inactive) and the GI50 [42] was > 100 µM (inactive). The GI50 [43] was > 100 µM (inactive), the GI50 [44] was > 100 µM (inactive) and the GI50 [45] was > 100 µM (inactive). For the same molecule, the GI50 [46] was > 100 µM (inactive), the GI50 [47] was > 100 µM (inactive) and the GI50 [48] was > 100 µM (inactive). For the same molecule, the GI50 [49] was > 100 µM (inactive), the GI50 [50] was > 100 µM (inactive) and the GI50 [51] was > 100 µM (inactive). For the same molecule, the GI50 [52] was > 100 µM (inactive), the GI50 [53] was > 100 µM (inactive) and the GI50 [54] was > 100 µM (inactive). For the same molecule, the GI50 [55] was > 100 µM (inactive), the GI50 [56] was > 100 µM (inactive) and the GI50 [57] was > 100 µM (inactive).
In the case of `O=[N+]([O-])c1ccc2nc3ccc([N+](=O)[O-])cn3c2c1`, the GI50 [1] is reported as > 100 µM (inactive), the GI50 [2] is reported as > 100 µM (inactive) and the GI50 [3] is reported as > 100 µM (inactive). The GI50 [4] was 36 µM (inactive), the GI50 [5] was 33.4 µM (inactive) and the GI50 [6] was 23.7 µM (inactive). For the same molecule, the GI50 [7] was 92.5 µM (inactive), the GI50 [8] was > 100 µM (inactive) and the GI50 [9] was > 100 µM (inactive). For the same molecule, the GI50 [10] was 29.4 µM (inactive), the GI50 [11] was 97.1 µM (inactive) and the GI50 [12] was > 100 µM (inactive). For the same molecule, the GI50 [13] was 20.7 µM (inactive), the GI50 [14] was 43.3 µM (inactive) and the GI50 [15] was 33 µM (inactive). For the same molecule, the GI50 [16] was > 100 µM (inactive), the GI50 [17] was greater than 100 µM and the GI50 [19] was 29.9 µM (inactive). For the same molecule, the GI50 [20] was > 100 µM (inactive), the GI50 [21] was > 100 µM (inactive) and the GI50 [22] was > 100 µM (inactive). The GI50 [23] was 42.4 µM (inactive), the GI50 [24] was 29.1 µM (inactive) and the GI50 [25] was > 100 µM (inactive). The GI50 [26] was > 100 µM (inactive), the GI50 [27] was > 100 µM (inactive) and the GI50 [28] was 30.5 µM (inactive). For the same molecule, the GI50 [29] was 34.4 µM (inactive), the GI50 [30] was > 100 µM (inactive) and the GI50 [31] was > 100 µM (inactive). The GI50 [32] was > 100 µM (inactive), the GI50 [33] was 36.1 µM (inactive) and the GI50 [34] was 63.7 µM (inactive). For the same molecule, the GI50 [35] was > 100 µM (inactive), the GI50 [36] was 83 µM (inactive) and the GI50 [37] was 98.6 µM (inactive). For the same molecule, the GI50 [38] was 27.4 µM (inactive), the GI50 [39] was > 100 µM (inactive) and the GI50 [40] was 86.3 µM (inactive). The GI50 [41] was 39.2 µM (inactive), the GI50 [42] was > 100 µM (inactive) and the GI50 [43] was > 100 µM (inactive). The GI50 [44] was > 100 µM (inactive), the GI50 [45] was 52.6 µM (inactive) and the GI50 [46] was 85.1 µM (inactive). For the same molecule, the GI50 [47] was 39.1 µM (inactive), the GI50 [48] was > 100 µM (inactive) and the GI50 [49] was 48.9 µM (inactive). The GI50 [50] was > 100 µM (inactive), the GI50 [51] was 32.5 µM (inactive) and the GI50 [52] was > 100 µM (inactive). The GI50 [53] was 39 µM (inactive), the GI50 [54] was > 100 µM (inactive) and the GI50 [55] was 33 µM (inactive). The GI50 [56] was 17.6 µM (inactive) and the GI50 [57] was 43.1 µM (inactive).
In the case of `COc1cccc(/N=N/N2CCCC2)c1`, the GI50 [1] is reported as > 100 µM (inactive), the GI50 [2] is reported as > 100 µM (inactive) and the GI50 [3] is reported as > 100 µM (inactive). For the same molecule, the GI50 [4] was > 100 µM (inactive), the GI50 [5] was > 100 µM (inactive) and the GI50 [6] was > 100 µM (inactive). For the same molecule, the GI50 [8] was > 100 µM (inactive), the GI50 [9] was > 100 µM (inactive) and the GI50 [10] was > 100 µM (inactive). For the same molecule, the GI50 [11] was > 100 µM (inactive), the GI50 [12] was > 100 µM (inactive) and the GI50 [58] was 53.7 µM (inactive). For the same molecule, the GI50 [13] was > 100 µM (inactive), the GI50 [14] was > 100 µM (inactive) and the GI50 [15] was > 100 µM (inactive). For the same molecule, the GI50 [16] was > 100 µM (inactive), the GI50 [17] was greater than 100 µM and the GI50 [18] was > 100 µM (inactive). The GI50 [19] was > 100 µM (inactive), the GI50 [20] was 41.4 µM (inactive) and the GI50 [21] was > 100 µM (inactive). The GI50 [22] was 34.6 µM (inactive), the GI50 [23] was > 100 µM (inactive) and the GI50 [24] was > 100 µM (inactive). The GI50 [25] was > 100 µM (inactive), the GI50 [26] was > 100 µM (inactive) and the GI50 [27] was > 100 µM (inactive). For the same molecule, the GI50 [28] was > 100 µM (inactive), the GI50 [29] was > 100 µM (inactive) and the GI50 [30] was > 100 µM (inactive). For the same molecule, the GI50 [31] was 59.2 µM (inactive), the GI50 [32] was 26.5 µM (inactive) and the GI50 [33] was > 100 µM (inactive). For the same molecule, the GI50 [34] was > 100 µM (inactive), the GI50 [37] was > 100 µM (inactive) and the GI50 [38] was > 100 µM (inactive). For the same molecule, the GI50 [39] was > 100 µM (inactive), the GI50 [40] was 39.5 µM (inactive) and the GI50 [41] was > 100 µM (inactive). The GI50 [42] was > 100 µM (inactive), the GI50 [43] was > 100 µM (inactive) and the GI50 [44] was > 100 µM (inactive). For the same molecule, the GI50 [45] was > 100 µM (inactive), the GI50 [46] was 40.2 µM (inactive) and the GI50 [48] was 27.2 µM (inactive). For the same molecule, the GI50 [49] was > 100 µM (inactive), the GI50 [50] was 9.46 µM (inactive) and the GI50 [51] was > 100 µM (inactive). The GI50 [52] was > 100 µM (inactive), the GI50 [53] was > 100 µM (inactive) and the GI50 [54] was 40.2 µM (inactive). For the same molecule, the GI50 [55] was > 100 µM (inactive), the GI50 [56] was > 100 µM (inactive) and the GI50 [57] was > 100 µM (inactive).

Source: ChEMBL document CHEMBL1201862, “PubChem BioAssay data set” (2004)
